Laboratory results: the NIST ThermoML archive (doi:10.1016/j.tca.2014.11.009)

Experiment: xn = mol fraction of the nth substance listed
Conditions: 100 kPa, Liquid; for speed of sound: Frequency=3 MHz, Sing-around technique in a fixed-path interferometer; for mass density: Vibrating tube method

O=Cc1ccco1 [2-furaldehyde] + CCC(C)O
Conditions	mass density, 283.15 K [kg/m3]	mass density, 293.15 K [kg/m3]	mass density, 303.15 K [kg/m3]	mass density, 313.15 K [kg/m3]	speed of sound, 283.15 K [m/s]	speed of sound, 293.15 K [m/s]	speed of sound, 303.15 K [m/s]	speed of sound, 313.15 K [m/s]
x1 = 0.0501	831.27	822.97	814.4	805.5	1279.1	1242.7	1206.1	1169.4
x1 = 0.1001	847.35	838.83	830.06	820.99	1289.1	1252.7	1216.1	1179.5
x1 = 0.1507	863.92	855.21	846.24	837.01	1299.3	1263.1	1226.6	1190
x1 = 0.2001	880.27	871.37	862.24	852.86	1309.5	1273.3	1236.9	1200.5
x1 = 0.3001	913.96	904.72	895.3	885.68	1330.4	1294.4	1258.3	1222.1
x1 = 0.3501	931.13	921.74	912.18	902.46	1341.2	1305.4	1269.3	1233.2
x1 = 0.4001	948.49	938.98	929.33	919.51	1352	1316.4	1280.4	1244.1
x1 = 0.4501	966.01	956.37	946.59	936.66	1363.4	1327.8	1291.9	1256
x1 = 0.5	983.65	973.9	964.03	954.03	1375.1	1339.4	1303.5	1267.6
x1 = 0.55	1001.41	991.58	981.69	971.7	1387.3	1351.4	1315.5	1279.6
x1 = 0.6	1019.4	1009.48	999.51	989.44	1399.4	1363.4	1327.4	1291.5
x1 = 0.6501	1037.63	1027.6	1017.53	1007.37	1411.8	1375.7	1339.6	1303.6
x1 = 0.8001	1093.43	1083.14	1072.78	1062.25	1448.5	1412	1375.6	1339.5
x1 = 0.8999	1131.48	1121	1110.45	1099.81	1472.1	1435.7	1399.2	1363.1
x1 = 1	1169.93	1159.33	1148.69	1138.01	1495.4	1458.8	1422.5	1386.5

O=Cc1ccco1 [2-furaldehyde] + CCCCO
Conditions	mass density, 283.15 K [kg/m3]	mass density, 293.15 K [kg/m3]	mass density, 303.15 K [kg/m3]	mass density, 313.15 K [kg/m3]	speed of sound, 283.15 K [m/s]	speed of sound, 293.15 K [m/s]	speed of sound, 303.15 K [m/s]	speed of sound, 313.15 K [m/s]
x1 = 0.0501	833.74	825.93	818	809.97	1301.8	1267.2	1233	1199.2
x1 = 0.1	850.14	842.12	833.98	825.71	1310.6	1275.9	1241.6	1207.7
x1 = 0.15	866.88	858.65	850.29	841.84	1319.6	1285	1250.5	1216.4
x1 = 0.1999	883.58	875.14	866.67	858.15	1328.7	1293.9	1259.3	1225.2
x1 = 0.2499	900.71	892.12	883.46	874.76	1337.3	1302.9	1268.4	1234.2
x1 = 0.3	917.89	909.1	900.31	891.55	1346.9	1312.1	1277.6	1243.3
x1 = 0.4	953.02	943.94	934.84	925.74	1365.5	1330.9	1296.4	1262.1
x1 = 0.45	970.58	961.33	952.08	942.85	1375.2	1340.7	1306.1	1271.7
x1 = 0.5	988.52	979.14	969.78	960.42	1385.7	1351	1316.3	1281.9
x1 = 0.5473	1005.5	995.94	986.39	976.86	1395.8	1361	1326.2	1291.7
x1 = 0.6999	1060.86	1050.92	1041.03	1031.18	1429.8	1394.6	1359.3	1324.3
x1 = 0.8	1097.24	1087.06	1076.9	1066.74	1452.2	1416.4	1380.7	1345.3
x1 = 0.8497	1115.11	1104.87	1094.66	1084.43	1463.1	1427.1	1391.3	1355.7
x1 = 0.8999	1133.5	1123.12	1112.74	1102.3	1474.2	1438.1	1401.9	1366.2
x1 = 1	1169.93	1159.33	1148.69	1138.01	1495.4	1458.8	1422.5	1386.5

O=Cc1ccco1 [2-furaldehyde] + CCO
Conditions	mass density, 283.15 K [kg/m3]	mass density, 293.15 K [kg/m3]	mass density, 303.15 K [kg/m3]	mass density, 313.15 K [kg/m3]	speed of sound, 283.15 K [m/s]	speed of sound, 293.15 K [m/s]	speed of sound, 303.15 K [m/s]	speed of sound, 313.15 K [m/s]
x1 = 0.0486	825.34	816.58	807.7	798.67	1221.8	1187.2	1152.6	1118.5
x1 = 0.0995	852.29	843.29	834.16	824.83	1245.2	1210.4	1175.6	1141.2
x1 = 0.15	877.44	868.21	858.83	849.37	1265.6	1230.5	1195.7	1161.2
x1 = 0.2	901.29	891.88	882.29	872.64	1284.6	1249.7	1214.8	1180.2
x1 = 0.25	924.5	914.91	905.24	895.34	1302.7	1267.7	1232.8	1198.2
x1 = 0.3001	946.91	937.18	927.3	917.42	1320.2	1285.2	1250.3	1215.7
x1 = 0.4501	1007.43	997.35	987.26	977.03	1367.1	1331.9	1296.9	1262.3
x1 = 0.6501	1076.56	1066.08	1055.65	1045.07	1421.3	1385.7	1350.4	1315.4
x1 = 0.7007	1091.79	1081.25	1070.76	1060.22	1433.5	1398	1362.5	1327.2
x1 = 0.7498	1105.77	1095.26	1084.63	1074.13	1444.7	1409.1	1373.4	1338
x1 = 0.8003	1119.65	1109.04	1098.47	1087.81	1455.7	1419.9	1384.2	1348.8
x1 = 0.8503	1132.81	1122.12	1111.5	1100.88	1466.4	1430.6	1394.6	1358.8
x1 = 0.9004	1145.37	1134.68	1124.08	1113.48	1476.6	1440.3	1404.2	1368.5
x1 = 0.9498	1157.85	1147.23	1136.49	1125.72	1486.3	1450.1	1413.8	1377.8
x1 = 1	1169.93	1159.33	1148.69	1138.01	1495.4	1458.8	1422.5	1386.5
